Drawing on patent US10774084B2, “Adenine derivatives and their use as UV-photoprotective agents” (UNIVERZITA PALACKEHO V OLOMOUCI, priority 2015, dated 2020), this text covers NHDF viability and HaCaT viability for four molecules.

Data set [1] concerns Normal human dermal fibroblasts (NHDF). The data set is described as follows: In vitro phototoxicity test (neutral red) on NHDF. It is filed as cell-based. The protocol:
Phototoxic potential of test compound was determined by modified in vitro test validated phototoxicity evaluation (Spielmann H, Balls M, Dupuis J, Pape W J, Pechovitch G, de Silva O, Holzhiitter H G, Clothier R, Desolle P, Gerberick F, Liebsch M, Lovell W W, Maurer T, Pfannenbecker U, Potthast J M, Csato M, Sladowski D, Steiling W, Brantom P. The International EU/COLIPA In Vitro Phototoxicity Validation Study: Results of Phase II (Blind Trial). Part 1: The 3T3 NRU Phototoxicity Test. Toxicol In Vitro. 1998; 12:305-27). Normal human dermal fibroblasts (NHDF) were used as an in vitro model. Cells were isolated from tissue specimens obtained from healthy patients undergoing plastic surgery at the Department of Plastic and Aesthetic Surgery (University Hospital Olomouc). The use of skin tissue was in accordance with the Ethics Committee of the University Hospital and Faculty of Medicine and Dentistry, Palacky University, Olomouc and all patients signed written informed consent. Fibroblasts were used between the 2nd and 4th passage. For all experiments the fibroblasts were seeded onto 96-well plates at a density of 0.8×10^5 cells/ml (0.2 ml per well) of cultivation medium (DMEM supplemented with fetal calf serum (10%, v/v), penicillin ([…]) and streptomycin (100 U/ml)). Test substances included compounds number 1, 3, 9, 15 and 20. Compounds were dissolved in DMSO and then diluted in serum free medium (DMEM supplemented with penicillin ([…]) and streptomycin (100 U/ml)). After 24 h incubation was cultivation medium changed to serum free medium containing test compound or DMSO (negative control). The final applied concentrations range 3.9-125 μmol/l. As a control, serum free medium supplemented with appropriate concentration of DMSO (0.5%, v/v) was used. In parallel with test compound, chlorpromazine (CPZ; 0.8-50 μmol/l) was used as a known phototoxic compound. The test compound was in parallel applied on two 96-well plates with NHDF. After 60 minutes incubation with test compound medium was discarded, cells were washed two-times with PBS and PBS supplemented with glucose (1 mg/ml) was applied. A plate was then exposed to a non-cytotoxic dose of UVA radiation (5.0 J/cm^2) using a solar simulator SOL 500 (Dr. Hoenle Technology, Germany) equipped with a H1 filter transmitting wavelengths of 320-400 nm. Intensity of UVA radiation was evaluated before each irradiation by UVA-meter. A control (non-irradiated) plate was for the period of irradiation incubated in dark. After UVA exposure PBS with glucose was discarded and serum free medium was applied. After 24 hours (37° C., 5% CO2) cell damage was evaluated by neutral red (NR) incorporation into viable cells. Medium was discarded and NR solution (0.03% w/v, PBS) was applied. After 60 minutes NR solution was discarded, cells were fixed with a mixture of formaldehyde (0.5%, v/v) and CaCl2 (1%, m/v) in ratio 1:1 and then NR was dissolved in methanol (50%, v/v) with acetic acid (1%, v/v). After 5 minutes of intensive shaking absorbance was measured at 540 nm. Experiments were performed in four independent repetitions with use of cells from four donors to minimize individual sensitivity of donor cells. Phototoxic effect was evaluated as % of viability of control cells that was calculated from experimental data (absorbance) according to the following equation:
[formula] • AS . . . absorbance of sample (cells pre-incubated with test compound in serum free medium and irradiated) • AC . . . absorbance of control (cells pre-incubated with DMSO in serum free medium and irradiated) • AB . . . absorbance of background (extraction solution)

Data set [2] has as its system HaCaT. The data set is described as follows: In vitro phototoxicity test (neutral red) on HaCaT. It is filed as cell-based, human. The protocol:
Spontaneously Immortalized Aneuploid Human Keratinocyte Cell Line (HaCaT) was bought from CLS (Eppeheim, Germany) and used as an in vitro model. For all experiments the keratinocytes were seeded onto 96-well plates at a density of 1.6×10^5 cells/ml (0.2 ml per well) of growth medium (DMEM supplemented with fetal bovine serum (10%), penicillin ([…]) and streptomycin (100 U/ml)).
Test substances included compounds number 3, 9, 15 and 20. Compounds were dissolved in DMSO and then diluted in serum free medium (DMEM supplemented penicillin (100 mg/ml) and streptomycin (100 U/ml)). After 24 h incubation was growth medium changed to serum free medium containing test compound or DMSO (negative control). The final applied concentrations range was 3.9-125 μmol/l. As a control, serum free medium supplemented with appropriate concentration of DMSO (0.5%, v/v) was used. In parallel with test compound, chlorpromazine (CPZ; 0.8-50 μmol/l) was used as a known phototoxic compound. The test compound was in parallel applied on two 96-well plates with HaCaT. After 60 minutes incubation with test compound medium was discarded, cells were washed two-times with PBS and PBS supplemented with glucose (1 mg/ml) was applied. A plate was then exposed to a non-cytotoxic dose of UVA radiation (5.0 J/cm2) using a solar simulator SOL 500 (Dr. Hoenle Technology, Germany) equipped with a H1 filter transmitting wavelengths of 320-400 nm. Intensity of UVA radiation was evaluated before each irradiation by UVA-meter. A control (non-irradiated) plate was for the period of irradiation incubated in dark. After UVA exposure PBS with glucose was discarded and serum free medium was applied. After 24 hours (37° C., 5% CO2) cell damage was evaluated by neutral red (NR) incorporation into viable cells. Medium was discarded and NR solution (0.03% w/v, PBS) was applied. After 60 minutes NR solution was discarded, cells were fixed with a mixture of formaldehyde (0.5%, v/v) and CaCl2 (1%, m/v) in ratio 1:1 and then NR was dissolved in methanol (50%, v/v) with acetic acid (1%, v/v). After 5 minutes of intensive shaking absorbance was measured at 540 nm. Experiments were performed in four independent repetition with use of cells from four donors to minimize individual sensitivity of donor cells. Phototoxic effect was evaluated as % of viability of control cells that was calculated from experimental data (absorbance) according to the following equation: […]
AS . . . absorbance of sample (cells pre-incubated with test compound in serum free medium and irradiated)
AC . . . absorbance of control (cells pre-incubated with DMSO in serum free medium and irradiated)
AB . . . absorbance of background (extraction solution)

Turning to `c1nc(NCC2CCCO2)c2ncn(C3CCCO3)c2n1` (stereo not drawn) [Compound 1, 6-(tetrahydrofuran-2-ylmethylamino)-9-(tetrahydrofuran-2-yl)purine], the NHDF viability turned out to be 105.1 % control in data set [1] (+UVA 5.0 J/cm^2, 3.9 μmol/l); 110.6 % control in data set [1] (+UVA 5.0 J/cm^2, 7.8 μmol/l); 106.8 % control in data set [1] (+UVA 5.0 J/cm^2, 15.6 μmol/l); 109.5 % control in data set [1] (+UVA 5.0 J/cm^2, 31.3 μmol/l); 103.3 % control in data set [1] (+UVA 5.0 J/cm^2, 62.5 μmol/l); 107.5 % control in data set [1] (+UVA 5.0 J/cm^2, 125 μmol/l). Further, the NHDF viability worked out at 96.6 % control in data set [1] (−UVA, 3.9 μmol/l); 106.5 % control in data set [1] (−UVA, 7.8 μmol/l); 99.6 % control in data set [1] (−UVA, 15.6 μmol/l); 102.4 % control in data set [1] (−UVA, 31.3 μmol/l); 102.3 % control in data set [1] (−UVA, 62.5 μmol/l); 109.7 % control in data set [1] (−UVA, 125 μmol/l).
As to `OCc1ccc(CNc2ncnc3c2ncn3C2CCCO2)o1` (stereo not drawn) [Compound 3, 6-(5-hydroxymethylfuran-2-ylmethylamino)-9-(tetrahydrofuran-2-yl)purine], the NHDF viability in data set [1] (+UVA 5.0 J/cm^2, 3.9 μmol/l) is 101.04 % control; in data set [1] (+UVA 5.0 J/cm^2, 7.8 μmol/l), 106.46 % control; in data set [1] (+UVA 5.0 J/cm^2, 15.6 μmol/l), 102.28 % control; in data set [1] (+UVA 5.0 J/cm^2, 31.3 μmol/l), 107.4 % control; in data set [1] (+UVA 5.0 J/cm^2, 62.5 μmol/l), 110.49 % control; in data set [1] (+UVA 5.0 J/cm^2, 125 μmol/l) it was 111.8 % control. The NHDF viability in data set [1] (−UVA, 3.9 μmol/l) is on record as 103 % control; in data set [1] (−UVA, 7.8 μmol/l), 104.9 % control; in data set [1] (−UVA, 15.6 μmol/l), 104.2 % control; in data set [1] (−UVA, 31.3 μmol/l) it was 107.7 % control; in data set [1] (−UVA, 62.5 μmol/l) it was 106.6 % control; in data set [1] (−UVA, 125 μmol/l) it was 110.4 % control. Further, the HaCaT viability in data set [2] (+UVA 5.0 J/cm2, 3.9 μmol/l) is on record as 103.88 % control; in data set [2] (+UVA 5.0 J/cm2, 7.8 μmol/l), 111.08 % control; in data set [2] (+UVA 5.0 J/cm2, 15.6 μmol/l), 107.93 % control; in data set [2] (+UVA 5.0 J/cm2, 31.3 μmol/l), 118.43 % control; in data set [2] (+UVA 5.0 J/cm2, 62.5 μmol/l) it was 120.78 % control; in data set [2] (+UVA 5.0 J/cm2, 125 μmol/l), 124.66 % control. Further, the HaCaT viability in data set [2] (−UVA, 3.9 μmol/l) worked out at 100.1 % control; in data set [2] (−UVA, 7.8 μmol/l), 100.4 % control; in data set [2] (−UVA, 15.6 μmol/l) it was 102.1 % control; in data set [2] (−UVA, 31.3 μmol/l), 107.8 % control; in data set [2] (−UVA, 62.5 μmol/l), 106.4 % control; in data set [2] (−UVA, 125 μmol/l), 109.5 % control.
For `c1csc(CNc2ncnc3c2ncn3C2CCCO2)c1` (stereo not drawn) [Compound 9, 6-(thiophen-2-ylmethylamino)-9-(tetrahydrofuran-2-yl)purine], the NHDF viability in data set [1] (+UVA 5.0 J/cm^2, 3.9 μmol/l) turned out to be 97.8 % control; in data set [1] (+UVA 5.0 J/cm^2, 7.8 μmol/l) it was 102.3 % control; in data set [1] (+UVA 5.0 J/cm^2, 15.6 μmol/l) it was 100.8 % control; in data set [1] (+UVA 5.0 J/cm^2, 31.3 μmol/l) it was 105.9 % control; in data set [1] (+UVA 5.0 J/cm^2, 62.5 μmol/l), 102.8 % control; in data set [1] (+UVA 5.0 J/cm^2, 125 μmol/l), 106.3 % control. The NHDF viability stood at 100 % control in data set [1] (−UVA, 3.9 μmol/l); 103 % control in data set [1] (−UVA, 7.8 μmol/l); 100.5 % control in data set [1] (−UVA, 15.6 μmol/l); 106.7 % control in data set [1] (−UVA, 31.3 μmol/l); 107.9 % control in data set [1] (−UVA, 62.5 μmol/l); 108.4 % control in data set [1] (−UVA, 125 μmol/l). The HaCaT viability in data set [2] (+UVA 5.0 J/cm2, 3.9 μmol/l) is 122.7 % control; in data set [2] (+UVA 5.0 J/cm2, 7.8 μmol/l), 124.2 % control; in data set [2] (+UVA 5.0 J/cm2, 15.6 μmol/l) it was 120.5 % control; in data set [2] (+UVA 5.0 J/cm2, 31.3 μmol/l), 128.1 % control; in data set [2] (+UVA 5.0 J/cm2, 62.5 μmol/l), 129.9 % control; in data set [2] (+UVA 5.0 J/cm2, 125 μmol/l), 126.6 % control. The HaCaT viability in data set [2] (−UVA, 3.9 μmol/l) was 101 % control; in data set [2] (−UVA, 7.8 μmol/l) it was 101.1 % control; in data set [2] (−UVA, 15.6 μmol/l), 100.4 % control; in data set [2] (−UVA, 31.3 μmol/l), 101.8 % control; in data set [2] (−UVA, 62.5 μmol/l), 103.9 % control; in data set [2] (−UVA, 125 μmol/l) it was 103.4 % control.
For the molecule `Clc1nc(NCc2ccco2)c2ncn(C3CCCO3)c2n1` (stereo not drawn) [Compound 15, 2-chloro-6-furfurylamino-9-(tetrahydrofuran-2-yl)purine], the NHDF viability in data set [1] (+UVA 5.0 J/cm^2, 3.9 μmol/l) is recorded as 100.1 % control; in data set [1] (+UVA 5.0 J/cm^2, 7.8 μmol/l) it was 101.5 % control; in data set [1] (+UVA 5.0 J/cm^2, 15.6 μmol/l), 102.6 % control; in data set [1] (+UVA 5.0 J/cm^2, 31.3 μmol/l), 102.9 % control; in data set [1] (+UVA 5.0 J/cm^2, 62.5 μmol/l), 103.3 % control; in data set [1] (+UVA 5.0 J/cm^2, 125 μmol/l) it was 97.3 % control. Besides, the NHDF viability in data set [1] (−UVA, 3.9 μmol/l) stood at 100.3 % control; in data set [1] (−UVA, 7.8 μmol/l) it was 103.5 % control; in data set [1] (−UVA, 15.6 μmol/l), 104.3 % control; in data set [1] (−UVA, 31.3 μmol/l), 105.4 % control; in data set [1] (−UVA, 62.5 μmol/l), 106.3 % control; in data set [1] (−UVA, 125 μmol/l), 101.2 % control. Moreover, the HaCaT viability is 116.4 % control in data set [2] (+UVA 5.0 J/cm2, 3.9 μmol/l); 119.9 % control in data set [2] (+UVA 5.0 J/cm2, 7.8 μmol/l); 119.9 % control in data set [2] (+UVA 5.0 J/cm2, 15.6 μmol/l); 118.8 % control in data set [2] (+UVA 5.0 J/cm2, 31.3 μmol/l); 115.7 % control in data set [2] (+UVA 5.0 J/cm2, 62.5 μmol/l); 104 % control in data set [2] (+UVA 5.0 J/cm2, 125 μmol/l). In addition, the HaCaT viability was found to be 106.5 % control in data set [2] (−UVA, 3.9 μmol/l); 107.4 % control in data set [2] (−UVA, 7.8 μmol/l); 108.6 % control in data set [2] (−UVA, 15.6 μmol/l); 108.6 % control in data set [2] (−UVA, 31.3 μmol/l); 109.2 % control in data set [2] (−UVA, 62.5 μmol/l); 105 % control in data set [2] (−UVA, 125 μmol/l).
